Data on 35 compounds can be found in US7592373B2 (Boehringer Ingelheim International GmbH, priority 2003, dated 2009).

Molecules are shown by their SMILES. Where a name gives a salt, the structure may show the parent alone.

A word on the melting point: it is the temperature of the solid-liquid transition.

For the compound `O=C(CCc1ccc(CN2CCC3(CCCC3)CC2)cc1)Nc1ccc(-c2ccc(Cl)cc2)cc1` [Example 6.28, 3-[4-(8-azaspiro[4.5]dec-8-ylmethyl)phenyl]-N-(4′-chlorobiphenyl-4-yl)propionamide], the melting point is 201.5 °C. As for `O=C(C#Cc1ccc(-c2ccc(Cl)cc2)cc1)Nc1ccc2c(ccn2CCN2CCCC2)c1` [Example 3.19, 3-(4′-chlorobiphenyl-4-yl)propynoic acid-[1-(2-pyrrolidin-1-ylethyl)-1H-indol-5-yl]amide], the melting point fell in the range of 224 to 227 °C.

Take `COc1cc(NC(=O)C#Cc2ccc(C(F)(F)F)cc2Cl)ccc1OCCN1CCC(C)CC1` [Example 4.270, 3-(2-chloro-4-trifluoromethylphenyl)propynoic acid-{3-methoxy-4-[2-(4-methylpiperidin-1-yl)ethoxy]phenyl}amide]: the melting point is 207 to 209 °C. To `O=C(CCc1ccc(CNC2CC2)cc1)Nc1ccc(-c2ccc(Cl)cc2)cc1` (as salt: trifluoroacetate) [Example 6.43, N-(4′-chlorobiphenyl-4-yl)-3-(4-cyclopropylaminomethylphenyl)propionamide trifluoroacetate] belongs 208 °C; to `CC1CCN(CCOc2ccc(NC(=O)C#Cc3ccc(C(F)(F)F)cc3Cl)cc2)CC1` (as salt: hydrochloride) [Example 3.45, 3-(2-chloro-4-trifluoromethylphenyl)propynoic acid {4-[2-(4-methylpiperidin-1-yl)ethoxy]phenyl}amide hydrochloride], 240 to 245 °C; to `CC1CCCC(C)N1Cc1ccc(NC(=O)C#Cc2ccc(-c3ccc(Cl)cc3)cc2)cc1` (centres unmarked) [Example 3.9, 3-(4′-chlorobiphenyl-4-yl)propynoic acid-[4-(2,6-dimethylpiperidin-1-ylmethyl)phenyl]amide], 158 to 163 °C. Regarding `CNC1(c2ccc(C#CC(=O)Nc3ccc(-c4ccc(Cl)cc4)cc3)cc2)CC1` (as salt: trifluoroacetate) [Example 1.423, 3-[4-(1-methylaminocyclopropyl)phenyl]propynoic acid-(4′-chlorobiphenyl-4-yl)amide trifluoroacetate], the melting point turned out to be 217.3 °C. Then `COc1ccc(-c2ccc(NC(=O)C#Cc3ccc(CN4CCC(Nc5ccccn5)CC4)cc3)cc2)cc1` [Example 1.11, 3-{4-[4-(pyridin-2-ylamino)piperidin-1-ylmethyl]phenyl}propynoic acid-(4′-methoxybiphenyl-4-yl)amide], with 196 to 197 °C; and `COc1ccc(-c2ccc(NC(=O)C#Cc3ccc(CN4CCCCC4)cc3)cc2)cc1` [Example 1.8, 3-(4-piperidin-1-ylmethylphenyl)propynoic acid-(4′-methoxybiphenyl-4-yl)amide], with 170 °C; and `CN(Cc1ccccc1)Cc1ccc(CCC(=O)Nc2ccc(-c3ccc(Cl)cc3)cc2)cc1` [Example 6.18, 3-{4-[(benzylmethylamino)methyl]phenyl}-N-(4′-chlorobiphenyl-4-yl)propionamide], with 174 to 175 °C. Consider `CN(Cc1ccc(CCC(=O)Nc2ccc(-c3ccc(Cl)cc3)cc2)cc1)CC1CC1` [Example 6.13, N-(4′-chlorobiphenyl-4-yl)-3-{4-[(cyclopropylmethylmethylamino)methyl]phenyl}propionamide], for which the melting point is 156 °C. In turn, `O=C(CCc1ccc(CN2CC[C@@H](O)C2)cc1)Nc1ccc(-c2ccc(Cl)cc2)cc1` [Example 6.29, N-(4′-chlorobiphenyl-4-yl)-3-[4-((R)-3-hydroxypyrrolidin-1-ylmethyl)phenyl]propionamide] yielded a melting point of 169 to 170 °C. In turn, `O=C(C#Cc1ccc(C(F)(F)F)cc1Cl)Nc1ccc(CN2CCCCC2)cc1` (as salt: hydrochloride) [Example 3.41, 3-(2-chloro-4-trifluoromethylphenyl)propynoic acid(4-piperidin-1-ylmethylphenyl)amide hydrochloride] showed a melting point of 193 to 195 °C. `CC#Cc1ccc(NC(=O)C#Cc2ccc(CN3CCCCC3)cc2)cc1` [Example 1.2, 3-(4-piperidin-1-ylemthylphenyl)propynoic acid-(4-prop-1-ynylphenyl)amide] displayed a melting point of 180 to 181 °C. For `CN(Cc1ccc(/C=C/C(=O)Nc2ccc(-c3ccc(Cl)cc3)cc2)cc1)C1CCN(C(=O)OC(C)(C)C)CC1` [Example 5.35, tert-butyl 4-({-[(E)-2-(4′-chlorobiphenyl-4-ylcarbamoyl)vinyl]benzyl}methylamino)piperidine-1-carboxylate], the melting point fell in the range of 168 to 169 °C. In turn, `CCN(CC)CCOc1ccc(NC(=O)C#Cc2cccnc2)cc1Cl` [Example 4.285, 3-pyridin-3-ylpropynoic acid-[3-chloro-4-(2-diethylaminoethoxy)phenyl]amide] showed a melting point of 118 to 120 °C. Then `CCN(CC)CCOc1ccc(NC(=O)C#Cc2ccc(-c3ccccc3)cc2Cl)cc1Cl` (as salt: hydrochloride) [Example 3.32, 3-(3-chlorobiphenyl-4-yl)propynoic acid-[3-chloro-4-(2-diethylaminoethoxy)phenyl]amide hydrochloride], with 195 to 200 °C; and `CCN(CC)CCOc1ccc(NC(=O)C#Cc2ccc(Cl)cc2Cl)cc1OC` (as salt: hydrochloride) [Example 4.7, 3-(2,4-dichlorophenyl)propynoic acid-[3-methoxy-4-(2-diethylaminoethoxy)phenyl]amide hydrochloride], with 205 to 207 °C. Then `O=C(CCc1ccc(CN2CC[C@H](O)C2)cc1)Nc1ccc(-c2ccc(Cl)cc2)cc1` [Example 6.7, N-(4′-chlorobiphenyl-4-yl)-3-[4-((S)-3-hydroxypyrrolidin-1-ylmethyl)phenyl]propionamide], with 171 to 172 °C; and `O=C(/C=C/c1ccc(CN2CC[C@H](O)C2)cc1)Nc1ccc(-c2ccc(Cl)cc2)cc1` [Example 5.9, (E)-N-(4′-chlorobiphenyl-4-yl)-3-[4-((S)-3-hydroxypyrrolidin-1-ylmethyl)phenyl]acrylamide], with 178 to 179 °C. `CCN(Cc1ccc(CCC(=O)Nc2ccc(-c3ccc(Cl)cc3)cc2)cc1)CC(C)(C)O` [Example 6.42, N-(4′-chlorobiphenyl-4-yl)-3-(4-{[ethyl-(2-hydroxy-2-methylpropyl)amino]methyl}phenyl)propionamide] showed a melting point of 135 °C. `CN(Cc1ccc(CCC(=O)Nc2ccc(-c3ccc(Cl)cc3)cc2)cc1)C1CCOCC1` [Example 6.12, N-(4′-chlorobiphenyl-4-yl)-3-(4-{[methyl-(tetrahydropyran-4-yl)amino]methyl}phenyl)propionamide] registered a melting point of 167 to 173 °C.

Regarding `CCN(CC)CCOc1ccc(NC(=O)C#Cc2c(Cl)cc(Cl)cc2Cl)cc1Cl` (as salt: hydrochloride) [Example 4.5, 3-(2,4,6-trichlorophenyl)propynoic acid-[3-chloro-4-(2-diethylaminoethoxy)phenyl]amide hydrochloride], the melting point was in the range of 188 to 191 °C. In turn, `COCCN(C)Cc1ccc(NC(=O)C#Cc2ccc(-c3ccc(Cl)cc3)cc2)cc1` [Example 3.11, 3-(4′-chlorobiphenyl-4-yl)propynoic acid-(4-{[(2-methoxyethyl)methylamino]methyl}phenyl)amide] came in with a melting point of 130 to 133 °C.

Consider `O=C(CCc1ccc(CNC2CCCCC2)cc1)Nc1ccc(-c2ccc(Cl)cc2)cc1` [Example 6.39, N-(4′-chlorobiphenyl-4-yl)-3-(4-cyclohexylaminomethylphenyl)propionamide], for which the melting point came to 208 °C. Turning to `O=C(C#Cc1ccc(CN2CCC[C@@H]2CO)cc1)Nc1ccc(-c2ccc(Cl)cc2)cc1F` [Example 1.20, 3-[4-((R)-2-hydroxymethylpyrrolidin-1-ylmethyl)phenyl]propynoic acid-(4′-chloro-3-fluorobiphenyl-4-yl)amide], the melting point lay within 146 to 148 °C.

Compound `CCN(CC)CCOc1ccc(NC(=O)C#Cc2ccc(Cl)cc2Cl)cc1` [Example 3.4, 3-(2,4-dichlorophenyl)propynoic acid-[4-(2-diethylaminoethoxy)phenyl]amide] came in with a melting point of 107 to 109 °C.

In the case of `O=C(/C=C/c1ccc(CNCC2CCCCC2)cc1)Nc1ccc(-c2ccc(Cl)cc2)cc1` [Example 5.21, (E)-N-(4′-chlorobiphenyl-4-yl)-3-{4-[(cyclohexylmethylamino)methyl]phenyl}acrylamide], the melting point fell in the range of 262 to 263 °C. `O=C(/C=C/c1ccc(CN2CCC(N3CCCCC3)C2)cc1)Nc1ccc(-c2ccc(Cl)cc2)cc1` (centres unmarked) [Example 5.28, (E)-N-(4′-chlorobiphenyl-4-yl)-3-[4-(3-piperidin-1-ylpyrrolidin-1-ylmethyl)phenyl]acrylamide] came in with a melting point of 209 to 210 °C.

As to `O=C(C#Cc1ccc(-c2ccc(Cl)cc2)cn1)Nc1ccc(CN2CCC(O)CC2)cc1` [Example 3.168, 3-[5-(4-chlorophenyl)pyridin-2-yl]propynoic acid-[4-(4-hydroxypiperidin-1-ylmethyl)phenyl]amide], the melting point was in the range of 186 to 190 °C. `O=C(CCc1ccc(CNC2CCCC2)cc1)Nc1ccc(-c2ccc(Cl)cc2)cc1` [Example 6.41, N-(4′-chlorobiphenyl-4-yl)-3-(4-cyclopentylaminomethylphenyl)propionamide] came in with a melting point of 196 to 197 °C.

In the case of `CN(Cc1ccc(C#CC(=O)Nc2ccc(-c3ccc(Cl)cc3)cc2)cc1)Cc1ccccn1` [Example 1.58], the melting point lay within 217 to 218 °C. For the compound `CCN(CC)CCOc1ccc(N(C)C(=O)C#Cc2ccc(C(F)(F)F)cc2Cl)cc1` [Example 3.39], the melting point lay in the range of 135 to 138 °C. As for `O=C(/C=C/c1ccc(CN2CCCC2)cc1)Nc1ccc(-c2ccc(Cl)cc2)cc1` [Example 5.13, (E)-N-(4′-chlorobiphenyl-4-yl)-3-(4-pyrrolidin-1-ylmethylphenyl)acrylamide], the melting point is 219 °C.

With `CC(C)Nc1ccc2cc(NC(=O)C#Cc3ccc(C(F)(F)F)cc3Cl)ccc2n1` [Example 7.2, 3-(2-chloro-4-trifluoromethylphenyl)propynoic acid-(2-isopropylaminoquinolin-6-yl)amide], the melting point fell in the range of 57 to 60 °C.
